SMILES strings stand for the structures.

For one experiment, the system named is wild poinsettia. Nature of the experiment: Test E preemergence. Type of experiment: in vivo, Euphorbia heterophylla. To be noted: for Poinsettia, Wild plant response rating: scale 0 to 100 (0 no effect, 100 complete control). The text has this: (§1) Seeds of plant species selected from corn (Zea mays), soybean (Glycine max), velvetleaf (Abutilon theophrasti), lambsquarters (Chenopodium album), wild poinsettia (Euphorbia heterophylla), palmer pigweed (Amaranthus palmeri), waterhemp (common waterhemp, Amaranthus rudis), surinam grass (Brachiaria decumbens), large (Lg) crabgrass (Digitaria sanguinalis), Brazilian crabgrass (Digitaria horizontalis), fall panicum (Panicum dichotomiflorum), giant foxtail (Setaria faberii), green foxtail (Setaria viridis), goosegrass (Eleusine indica), johnsongrass (Sorghum halepense), ragweed (common ragweed, Ambrosia elatior), barnyardgrass (Echinochloa crus-galli), sandbur (southern sandbur, Cenchrus echinatus), arrowleaf sida (Sida rhombifolia), Italian ryegrass (Lolium multiflorum), dayflower (Virginia (VA) dayflower, Commelina virginica), field bindweed (Convolvulus arvensis), morningglory (Ipomoea coccinea), nightshade (eastern black nightshade, Solanum ptycanthum), kochia (Kochia scoparia), yellow nutsedge (Cyperus esculentus), cocklebur (common cocklebur, Xanthium strumarium), smartweed (ladysthumb smartweed, and hairy beggarticks (Bidens pilosa), were planted into a silt loam soil and treated preemergence with test chemicals formulated in a non-phytotoxic solvent mixture which included a surfactant.
(§2) At the same time, plants from these crop and weed species and also horseweed (Canada horseweed, Conyza canadensis), waterhemp_RES1, (ALS & Triazine resistant common waterhemp, Amaranthus rudis), and waterhemp_RES2, (ALS & HPPD resistant common waterhemp, Amaranthus rudis) were planted in pots containing Redi-Earth® planting medium (Scotts Company, 14111 Scottslawn Road, Marysville, Ohio 43041) comprising spaghnum peat moss, vermiculite, wetting agent and starter nutrients were treated with postemergence applications of test chemicals formulated in the same manner. Plants ranged in height from 2 to 18 cm for postemergence treatments (1- to 4-leaf stage). Treated plants and controls were maintained in a greenhouse for 14 to 21 days, after which time all species were compared to controls and visually evaluated. Plant response ratings, summarized in Table E, are based on a scale of 0 to 100 where 0 is no effect and 100 is complete control. A dash (-) response means no test result.

A further experiment concerns barnyardgrass. Nature of the experiment: Test C flooded paddy test. Type of experiment: in vivo, Echinochloa crus-galli. The settings on record: Flood, scale 0 to 100 (0 no effect, 100 complete control), 13 to 15 days. An outline of the steps:
(§3)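 Greenhouse pots flooded to 3 cm above soil at time of treatment received compound via the water, which stayed at that level.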

Another experiment has as its system green foxtail. As to the kind of experiment: Test E preemergence. Type of experiment: in vivo, Setaria viridis. To be noted: for Foxtail, Green plant response rating: scale 0 to 100 (0 no effect, 100 complete control). The method in brief:
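Response was scored visually on a 0-100 scale (100 = complete control) versus controls after 14 to 21 days in the greenhouse. Test chemicals, formulated with surfactant in a non-phytotoxic solvent mixture, had been applied preemergence to seeds in silt loam soil or postemergence to 1- to 4-leaf plants in potting medium.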

Another experiment has as its system ragweed. As to the kind of experiment: Test A preemergence. Type of experiment: in vivo, Ambrosia elatior. An outline of the steps:
(§4)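 Compounds in non-phytotoxic solvent with surfactant applied as soil spray preemergence, or postemergence to plants 2-10 cm at one- to two-leaf stage, in loam/sand. After approximately 10 days in greenhouse, injury rated visually versus untreated controls, 0 (no effect) to 100 (complete control).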

In the next experiment the test system is Italian ryegrass. Nature of the experiment: Test A postemergence. To be noted: 0 to 100 scale where 0 is no effect and 100 is complete control. Type of experiment: in vivo, Lolium multiflorum. The method in brief: as §4
The test system of another experiment is galium. As to the kind of experiment: Test A postemergence. Type of experiment: in vivo, Galium aparine. The settings on record: 0 to 100 scale where 0 is no effect and 100 is complete control. The method in brief:
as §4

The subject of the next experiment is ducksalad. As to the kind of experiment: Test C flooded paddy test. The format is in vivo, Heteranthera limosa. To be noted: Flood, scale 0 to 100 (0 no effect, 100 complete control), 13 to 15 days. An outline of the steps: as §3
The next experiment has as its system dayflower. Nature of the experiment: Test E preemergence. Type of experiment: in vivo, Commelina virginica. The settings on record: for Dayflower, VA plant response rating: scale 0 to 100 (0 no effect, 100 complete control).
Text: as §1, §2

In the next experiment the test system is lambsquarters. Nature of the experiment: Test D preemergence. The format is in vivo, Chenopodium album. The settings on record: Chenopodium album, pre-emergence; for pest or weed control at 16 g/ha: 16 g ai/ha, scale 0 (no effect) to 100 (complete control), read-out: Plant response rating, Lambsquarters; for pest or weed control at 31 g/ha: 31 g ai/ha; for pest or weed control at 31 g/ha / pest or weed control at 62 g/ha / pest or weed control at 125 g/ha: scale 0-100, read-out: Plant response rating, Lambsquarters; for pest or weed control at 62 g/ha: 62 g ai/ha; for pest or weed control at 125 g/ha: 125 g ai/ha. The text has this:
Seeds of plant species selected from bluegrass (annual bluegrass, Poa annua), blackgrass (Alopecurus myosuroides), canarygrass (littleseed canarygrass, Phalaris minor), chickweed (common chickweed, Stellaria media), galium (catchweed bedstraw, Galium aparine), bromegrass, downy (downy bromegrass, Bromus tectorum), field poppy (Papaver rhoeas), field violet (Viola arvensis), green foxtail (Setaria viridis), deadnettle (henbit deadnettle, Lamium amplexicaule), Italian ryegrass (Lolium multiflorum), kochia (Kochia scoparia), lambsquarters (Chenopodium album), oilseed rape (Brassica napus), pigweed (Amaranthus retroflexus), chamomile (scentless chamomile, Matricaria inodora), Russian thistle (Salsola kali), speedwell (bird's-eye speedwell, Veronica persica), spring barley (Hordeum vulgare), spring wheat (Triticum aestivum), wild buckwheat (Polygonum convolvulus), wild mustard (Sinapis arvensis), wild oat (Avena fatua), wild radish (Raphanus raphanistrum), windgrass (Apera spica-venti), winter barley (Hordeum vulgare), and winter wheat (Triticum aestivum) were planted into a silt loam soil and treated preemergence with test chemicals formulated in a non-phytotoxic solvent mixture which included a surfactant.
At the same time, these species were planted in pots containing Redi-Earth® planting medium (Scotts Company, 14111 Scottslawn Road, Marysville, Ohio 43041) comprising spaghnum peat moss, vermiculite, wetting agent and starter nutrients and treated with postemergence applications of the test chemicals formulated in the same manner. Plants ranged in height from 2 to 18 cm (1- to 4-leaf stage). Treated plants and controls were maintained in a controlled growth environment for 7 to 21 days after which time all species were compared to controls and visually evaluated. Plant response ratings, summarized in Table D, are based on a scale of 0 to 100 where 0 is no effect and 100 is complete control. A dash (-) response means no test result.

[1] abbreviates: 125 g ai/ha, scale 0 to 100, 0 no effect, 100 complete control.
[2] abbreviates: 250 g ai/ha, scale 0 to 100, 0 no effect, 100 complete control.
Where [3] appears, read: 8 g ai/ha, scale 0 to 100, 0 is no effect, 100 is complete control.

On to `CCOc1cnn(-c2c(C#N)cccc2Oc2ncc(F)cn2)c1` [Compound 89], for which the “Poinsettia, Wild plant response rating” value in the experiment on wild poinsettia (31 g ai/ha) stood at 20; in the experiment with wild poinsettia (62 g ai/ha) it was 40. The “Plant response rating, Poinsettia, Wild” value in the experiment with wild poinsettia (setting [1]) was found to be 70; with wild poinsettia (setting [2]) it was 85. In addition, the “Plant response rating, Barnyardgrass” value with barnyardgrass (62 g ai/ha) is given as 0; in the experiment with barnyardgrass (125 g ai/ha), 15; in the experiment with barnyardgrass (250 g ai/ha), 20. The “Foxtail, Green plant response rating” value came out at 0 in the experiment with green foxtail (31 g ai/ha) and 35 in the experiment on green foxtail (62 g ai/ha). Besides, the “Plant response rating, Foxtail, Green” value in the experiment on green foxtail (setting [1]) is recorded as 65; with green foxtail (setting [2]) it was 85. The “Plant response rating, Ragweed” value in the experiment on ragweed (125 g ai/ha, 0 to 100 scale where 0 is no effect and 100 is complete control) stood at 50. Moreover, the “Ragweed plant response rating” value in the experiment on ragweed (500 g ai/ha, 0 to 100 scale, 0 no effect, 100 complete control, approx. 10 days) was determined as 70. In addition, the “Plant response rating, Ryegrass, Italian” value is 0 in the experiment on Italian ryegrass (125 g ai/ha) and 90 in the experiment with Italian ryegrass (500 g ai/ha). Further, the “Plant response rating, Galium” value in the experiment with galium (125 g ai/ha) and with galium (500 g ai/ha) was 90 throughout. Moreover, the “Plant response rating, Ducksalad” value came to 0 in the experiment on ducksalad (62 g ai/ha), 65 with ducksalad (125 g ai/ha) and 80 in the experiment with ducksalad (250 g ai/ha). Also, the “Dayflower, VA plant response rating” value with dayflower (31 g ai/ha) is on record as 0; with dayflower (62 g ai/ha) it was 60. Moreover, the “Plant response rating, Dayflower, VA” value is recorded as 80 in the experiment on dayflower (setting [1]) and 98 in the experiment with dayflower (setting [2]).

With `FC(F)(F)c1cn(-c2ccccc2Oc2ncc(Cl)cn2)nn1` [Compound 166, 5-chloro-2-[2-[4-(trifluoromethyl)-1H-1,2,3-triazol-1-yl]phenoxy]pyrimidine], in the experiment with lambsquarters, the pest or weed control at 16 g/ha was determined as 85%, the pest or weed control at 31 g/ha came out at 95%, the pest or weed control at 62 g/ha was 100% and the pest or weed control at 125 g/ha is 100%.

For `FC(F)(F)c1cnn(-c2c(Cl)cccc2Oc2ncc(Cl)cn2)c1` [Compound 167], the “Poinsettia, Wild plant response rating” value is recorded as 0 with wild poinsettia (31 g ai/ha) and 20 in the experiment with wild poinsettia (62 g ai/ha). For the same compound, the “Plant response rating, Poinsettia, Wild” value with wild poinsettia (setting [1]) stood at 25. Besides, the “Plant response rating, Barnyardgrass” value in the experiment with barnyardgrass (31 g ai/ha), with barnyardgrass (62 g ai/ha), in the experiment on barnyardgrass (125 g ai/ha) and in the experiment with barnyardgrass (250 g ai/ha) was 0 each time. For the same compound, the “Foxtail, Green plant response rating” value is given as 10 in the experiment with green foxtail (16 g ai/ha), 35 with green foxtail (31 g ai/ha) and 70 in the experiment on green foxtail (62 g ai/ha). In addition, the “Plant response rating, Foxtail, Green” value in the experiment with green foxtail (setting [1]) amounted to 90. Besides, the “Plant response rating, Ducksalad” value was determined as 0 with ducksalad (31 g ai/ha), 50 in the experiment with ducksalad (62 g ai/ha), 60 with ducksalad (125 g ai/ha) and 80 in the experiment on ducksalad (250 g ai/ha). In addition, the “Dayflower, VA plant response rating” value in the experiment on dayflower (16 g ai/ha) is on record as 0; in the experiment on dayflower (31 g ai/ha), 5; with dayflower (62 g ai/ha) it was 65. Also, in the experiment with dayflower (setting [1]), the “Plant response rating, Dayflower, VA” value is 100.

Take `Fc1cccc(Oc2ncc(Cl)cn2)c1-n1cc(Br)cn1` [Compound 178, 2-[2-(4-bromo-1H-pyrazol-1-yl)-3-fluorophenoxy]-5-chloropyrimidine]: in the experiment on lambsquarters, the pest or weed control at 16 g/ha was 20%, the pest or weed control at 31 g/ha came out at 70%, the pest or weed control at 62 g/ha was 80% and the pest or weed control at 125 g/ha amounted to 85%.

As to `Fc1cccc(Oc2ncc(Cl)cn2)c1-n1cc(I)cn1` [Compound 179], the “Plant response rating, Poinsettia, Wild” value is 0 in the experiment with wild poinsettia (setting [3]) and 35 in the experiment with wild poinsettia (setting [1]). The “Poinsettia, Wild plant response rating” value in the experiment with wild poinsettia (62 g ai/ha) came out at 30. Besides, the “Plant response rating, Barnyardgrass” value in the experiment with barnyardgrass (31 g ai/ha), with barnyardgrass (62 g ai/ha), in the experiment with barnyardgrass (125 g ai/ha) and in the experiment on barnyardgrass (250 g ai/ha) was 0 throughout. In addition, the “Plant response rating, Foxtail, Green” value with green foxtail (setting [3]) worked out at 0; in the experiment with green foxtail (setting [1]), 100. In addition, the “Foxtail, Green plant response rating” value in the experiment with green foxtail (16 g ai/ha) is 0; with green foxtail (62 g ai/ha), 25. Also, the “Plant response rating, Ducksalad” value came to 20 in the experiment on ducksalad (31 g ai/ha), 60 in the experiment on ducksalad (62 g ai/ha), 85 in the experiment with ducksalad (125 g ai/ha) and 95 in the experiment with ducksalad (250 g ai/ha). The “Plant response rating, Dayflower, VA” value in the experiment with dayflower (setting [3]) is 0; in the experiment on dayflower (setting [1]), 60. Further, the “Dayflower, VA plant response rating” value in the experiment on dayflower (16 g ai/ha) and in the experiment with dayflower (62 g ai/ha) was 0 each time.

For the compound `FC(F)c1cccc(Oc2ncc(Cl)cn2)c1-n1cc(Br)cn1` [Compound 194, 2-[2-(4-bromo-1H-pyrazol-1-yl)-3-(difluoromethyl)phenoxy]-5-chloropyrimidine], the “Poinsettia, Wild plant response rating” value in the experiment with wild poinsettia (31 g ai/ha) is given as 10; in the experiment with wild poinsettia (62 g ai/ha), 0. The “Plant response rating, Barnyardgrass” value in the experiment with barnyardgrass (31 g ai/ha), in the experiment on barnyardgrass (62 g ai/ha), in the experiment with barnyardgrass (125 g ai/ha) and in the experiment on barnyardgrass (250 g ai/ha) was 0 in each case. The “Foxtail, Green plant response rating” value in the experiment on green foxtail (31 g ai/ha) turned out to be 35; in the experiment on green foxtail (62 g ai/ha) it was 80. Further, the “Plant response rating, Ducksalad” value amounted to 65 with ducksalad (31 g ai/ha), 80 in the experiment on ducksalad (62 g ai/ha), 90 in the experiment with ducksalad (125 g ai/ha) and 100 in the experiment on ducksalad (250 g ai/ha). Further, the “Dayflower, VA plant response rating” value in the experiment with dayflower (31 g ai/ha) came to 0; with dayflower (62 g ai/ha) it was 40.

The values above are taken from patent US9695155B2, “Herbicidal substituted pyrimidinyloxy benzene compounds” (E. I. DU PONT DE NEMOURS AND COMPANY, priority 2013, dated 2017).
